Drawing on ChEMBL document CHEMBL5113435, “Development of an automated screen for Kv7.2 potassium channels and discovery of a new agonist chemotype” (Bioorg Med Chem Lett, 2022), this text covers V1/2, EC50 and Ratio EC50 for 21 compounds.

A word on the EC50: it is the midpoint of the concentration-response curve.

Test [1] concerns the target T1, Potassium voltage-gated channel subfamily KQT member 2 (Homo sapiens, UniProt O43526). Conditions: filed as agonist, dose 5.0 µM.
Description: Agonist activity at Kv7.2 (unknown origin) assessed as shifting of voltage dependent activation to more negative potentials at 5 uM by SyncroPatch assay
The species entered for test [2] is Homo sapiens. Conditions: filed as agonist, dose 5.0 µM.
Description: Agonist activity at Kv7.2 W236L mutant (unknown origin) assessed as shifting of voltage dependent activation to more negative potentials at 5 uM by SyncroPatch assay
The target of test [3] is T1, Potassium voltage-gated channel subfamily KQT member 2. In words: Agonist activity at Kv7.2 (unknown origin) assessed as shifting of voltage dependent activation to more negative potentials by SyncroPatch assay. (In general: The patch-clamp technique gives a direct electrical read-out from membranes.)
The target of test [4] is T2, Potassium voltage-gated channel subfamily KQT member 4 (Homo sapiens, UniProt P56696).
T2 sequence (P56696 whole entry): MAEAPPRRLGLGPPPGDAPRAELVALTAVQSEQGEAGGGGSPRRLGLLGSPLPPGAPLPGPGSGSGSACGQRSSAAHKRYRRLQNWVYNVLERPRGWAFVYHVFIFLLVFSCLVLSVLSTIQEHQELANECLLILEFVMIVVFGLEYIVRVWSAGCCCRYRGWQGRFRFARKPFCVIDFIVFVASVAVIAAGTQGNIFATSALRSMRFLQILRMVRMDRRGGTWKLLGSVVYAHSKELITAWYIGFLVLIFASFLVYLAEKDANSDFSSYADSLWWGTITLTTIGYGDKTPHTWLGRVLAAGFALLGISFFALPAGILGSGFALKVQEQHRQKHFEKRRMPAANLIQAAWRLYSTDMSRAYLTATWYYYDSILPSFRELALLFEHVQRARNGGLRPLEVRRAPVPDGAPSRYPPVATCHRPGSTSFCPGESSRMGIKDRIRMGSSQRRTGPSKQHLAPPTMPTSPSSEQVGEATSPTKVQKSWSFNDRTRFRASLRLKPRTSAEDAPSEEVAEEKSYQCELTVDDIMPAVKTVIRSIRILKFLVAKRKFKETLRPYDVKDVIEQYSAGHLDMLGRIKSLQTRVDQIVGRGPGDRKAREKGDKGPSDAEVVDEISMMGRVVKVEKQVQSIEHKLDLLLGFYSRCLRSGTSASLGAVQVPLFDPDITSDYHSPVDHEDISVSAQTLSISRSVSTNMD
In words: Agonist activity at Kv7.4 (unknown origin) expressed in CHO cells co-expressing GFP. Type of test: cell-based.

The target in test [5] is Potassium voltage-gated channel subfamily KQT member 5 (Homo sapiens, UniProt Q9NR82). In words: Agonist activity at Kv7.5 (unknown origin) expressed in CHO cells co-expressing GFP. Type of test: cell-based.
The target of test [6] is Voltage-gated potassium channel, KQT; KCNQ2(Kv7.2)/KCNQ3(Kv7.3) (Homo sapiens, UniProt O43525+O43526). In words: Agonist activity at Kv7.2/3 (unknown origin) expressed in CHO cells co-expressing GFP. Type of test: cell-based.
For test [7], the species on record is Homo sapiens. Kind of test: Selectivity index, ratio of EC50 for agonist activity at Kv7.4 (unknown origin) expressed in CHO cells co-expressing GFP to EC50 for agonist activity at Kv7.2/3 (unknown origin) expressed in CHO cells co-expressing GFP. Type of test: cell-based.
Test [8] is filed under the species Homo sapiens. Kind of test: Selectivity index, ratio of EC50 for agonist activity at Kv7.5 (unknown origin) expressed in CHO cells co-expressing GFP to EC50 for agonist activity at Kv7.2/3 (unknown origin) expressed in CHO cells co-expressing GFP. It counts as cell-based.

Sequence of Potassium voltage-gated channel subfamily KQT member 5 (Q9NR82 whole entry): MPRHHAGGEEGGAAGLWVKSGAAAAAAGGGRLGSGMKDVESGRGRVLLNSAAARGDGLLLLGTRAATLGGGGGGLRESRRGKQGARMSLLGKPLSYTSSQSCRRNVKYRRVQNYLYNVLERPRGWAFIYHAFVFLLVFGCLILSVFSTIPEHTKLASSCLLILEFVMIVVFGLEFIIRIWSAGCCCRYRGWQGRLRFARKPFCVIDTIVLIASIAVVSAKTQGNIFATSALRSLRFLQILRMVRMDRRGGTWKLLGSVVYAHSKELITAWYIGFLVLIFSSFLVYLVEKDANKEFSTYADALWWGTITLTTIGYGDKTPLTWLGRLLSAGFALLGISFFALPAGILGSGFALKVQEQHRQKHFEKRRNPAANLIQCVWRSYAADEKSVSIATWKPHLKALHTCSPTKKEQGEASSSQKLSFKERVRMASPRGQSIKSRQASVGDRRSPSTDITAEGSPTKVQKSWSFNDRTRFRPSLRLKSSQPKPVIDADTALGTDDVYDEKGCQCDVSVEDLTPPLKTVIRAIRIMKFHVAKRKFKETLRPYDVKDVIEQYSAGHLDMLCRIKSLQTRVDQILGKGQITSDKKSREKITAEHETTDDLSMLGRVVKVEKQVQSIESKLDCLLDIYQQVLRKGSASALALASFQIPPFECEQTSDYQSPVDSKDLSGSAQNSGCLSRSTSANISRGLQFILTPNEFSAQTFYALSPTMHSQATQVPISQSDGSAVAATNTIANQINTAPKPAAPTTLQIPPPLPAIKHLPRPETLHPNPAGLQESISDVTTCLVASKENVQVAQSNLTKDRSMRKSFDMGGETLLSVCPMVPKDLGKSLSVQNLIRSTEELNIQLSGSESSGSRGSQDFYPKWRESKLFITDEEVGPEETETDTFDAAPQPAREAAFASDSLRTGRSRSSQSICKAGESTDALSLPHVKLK
T1 sequence (O43526 whole entry): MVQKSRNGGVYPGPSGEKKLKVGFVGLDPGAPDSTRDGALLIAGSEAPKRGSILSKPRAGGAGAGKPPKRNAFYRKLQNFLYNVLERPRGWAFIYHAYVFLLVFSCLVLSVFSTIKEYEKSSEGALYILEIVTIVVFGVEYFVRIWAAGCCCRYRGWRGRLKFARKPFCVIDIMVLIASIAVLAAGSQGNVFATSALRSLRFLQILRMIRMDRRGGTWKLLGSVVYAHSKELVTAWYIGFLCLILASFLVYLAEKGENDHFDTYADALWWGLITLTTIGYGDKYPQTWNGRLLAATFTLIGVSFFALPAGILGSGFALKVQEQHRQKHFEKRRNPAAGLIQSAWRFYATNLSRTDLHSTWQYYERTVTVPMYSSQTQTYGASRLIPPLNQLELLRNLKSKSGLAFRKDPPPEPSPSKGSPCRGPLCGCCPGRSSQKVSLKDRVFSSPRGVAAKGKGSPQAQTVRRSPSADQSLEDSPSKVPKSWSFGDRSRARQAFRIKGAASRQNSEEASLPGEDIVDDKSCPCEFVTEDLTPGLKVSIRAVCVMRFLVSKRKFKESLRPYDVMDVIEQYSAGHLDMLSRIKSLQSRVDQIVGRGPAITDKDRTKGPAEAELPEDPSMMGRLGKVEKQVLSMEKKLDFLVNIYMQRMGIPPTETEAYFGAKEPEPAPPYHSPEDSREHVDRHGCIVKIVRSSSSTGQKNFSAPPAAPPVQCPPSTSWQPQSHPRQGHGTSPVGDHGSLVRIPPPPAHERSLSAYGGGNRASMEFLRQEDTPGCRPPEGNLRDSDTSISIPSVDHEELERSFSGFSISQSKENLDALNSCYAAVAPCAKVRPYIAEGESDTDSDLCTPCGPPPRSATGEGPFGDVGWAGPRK
Sequence of Voltage-gated potassium channel, KQT; KCNQ2(Kv7.2)/KCNQ3(Kv7.3) (O43526 whole entry): as above
Sequence of Voltage-gated potassium channel, KQT; KCNQ2(Kv7.2)/KCNQ3(Kv7.3) (O43525 whole entry): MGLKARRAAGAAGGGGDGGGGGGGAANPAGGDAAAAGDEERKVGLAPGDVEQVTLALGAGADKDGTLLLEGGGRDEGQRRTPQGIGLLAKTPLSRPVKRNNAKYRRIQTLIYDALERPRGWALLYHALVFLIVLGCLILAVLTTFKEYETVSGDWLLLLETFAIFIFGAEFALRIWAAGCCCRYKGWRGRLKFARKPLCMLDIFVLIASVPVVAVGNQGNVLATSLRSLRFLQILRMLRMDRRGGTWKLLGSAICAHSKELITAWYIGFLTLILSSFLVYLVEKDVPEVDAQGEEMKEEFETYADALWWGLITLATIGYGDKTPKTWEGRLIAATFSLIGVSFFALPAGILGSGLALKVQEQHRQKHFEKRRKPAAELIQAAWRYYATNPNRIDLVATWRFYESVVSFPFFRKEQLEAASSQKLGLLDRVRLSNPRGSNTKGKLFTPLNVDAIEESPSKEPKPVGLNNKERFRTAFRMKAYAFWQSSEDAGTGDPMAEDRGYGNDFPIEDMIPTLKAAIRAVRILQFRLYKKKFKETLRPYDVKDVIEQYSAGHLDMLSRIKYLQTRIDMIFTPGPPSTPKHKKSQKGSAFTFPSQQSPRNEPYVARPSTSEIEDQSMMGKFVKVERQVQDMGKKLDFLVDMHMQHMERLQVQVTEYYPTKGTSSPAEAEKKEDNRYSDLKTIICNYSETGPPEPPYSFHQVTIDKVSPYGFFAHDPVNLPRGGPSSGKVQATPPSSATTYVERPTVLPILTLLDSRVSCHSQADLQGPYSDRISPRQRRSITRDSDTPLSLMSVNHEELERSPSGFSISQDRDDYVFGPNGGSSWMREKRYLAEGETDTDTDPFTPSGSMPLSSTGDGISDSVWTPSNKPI

For `O=C(Cc1cc(F)cc(F)c1)Nc1ccc2[nH]c(-c3ccc(C(F)(F)F)cc3)cc2c1`, the V1/2 in test [1] was -1.1 mV; in the test filed under Homo sapiens [2] it was 2.4 mV.

As for `CC[C@H]1Nc2ccc(OC)cc2[C@@H](NS(C)(=O)=O)[C@@H]1C`, the V1/2 is -3 mV in test [1] and 2.8 mV in the test filed under Homo sapiens [2].

As for `CCOC(=O)Nc1ccc(NCc2ccc(F)cc2)cc1N` [EZOGABINE], in test [3], the EC50 was determined as 4.21 µM. The V1/2 in test [1] is -34.3 mV; in the test listed under Homo sapiens [2] it was 4.2 mV.

Take `CCOC(=O)Nc1ccc(NCc2ccc(F)cc2)nc1N`: the V1/2 in test [1] is -23.8 mV; in the test filed under Homo sapiens [2] it was 1.2 mV.

Take `CC(C)OC(=O)Nc1ccc2[nH]c(-c3ccc(C(F)(F)F)cc3)cc2c1`: the V1/2 was -3.2 mV in test [1] and -0.31 mV in the test listed under Homo sapiens [2].

For `O=C(Cc1ccc(OC(F)(F)F)cc1)Nc1ccc2[nH]c(-c3ccc(C(F)(F)F)cc3)cc2c1`, the V1/2 was -8.9 mV in test [1] and 3.9 mV in the test filed under Homo sapiens [2].

Consider `CCOC(=O)Nc1ccc2[nH]c(-c3ccc(C(F)(F)F)cc3)cc2c1`, for which the V1/2 in test [1] was -4.8 mV; in the test listed under Homo sapiens [2] it was -6 mV.

Regarding `Nc1c(F)c(NCc2ncc(C(F)(F)F)cc2F)c(F)c(F)c1NC(=O)OC1CC1`, the values for the EC50 in test [4] and in test [5] were 320 nM and 3780 nM, respectively.

As for `CCOC(=O)Nc1ccc2[nH]c(-c3ccc(F)cc3)cc2c1`, the V1/2 in test [1] was -0.66 mV; in the test listed under Homo sapiens [2] it was 2.5 mV.

Take `CCOC(=O)Nc1ccc(NCc2ccc(C(F)(F)F)nc2)c(F)c1N`: the 50% effective concentration (EC50) in test [6] was determined as 3360 nM; in test [4] it was 660 nM; in test [5], 540 nM.

In the case of `CCOC(=O)Nc1cc(F)c2c(c1N)S(=O)(=O)CC(c1ccccc1)N2` (stereo unspecified), the V1/2 turned out to be 4.4 mV in test [1] and 2.8 mV in the test listed under Homo sapiens [2].

In the case of `COc1ccc2c(c1)[C@@H](NC(=O)OCc1ccccc1)[C@H](C)[C@@H](c1ccccc1)N2C(=O)NC(C)C`, the V1/2 stood at 6.2 mV in test [1] and 4.9 mV in the test listed under Homo sapiens [2].

`COc1ccc(CNc2cc3ccccc3c(=O)[nH]2)cc1`: the V1/2 in test [1] was -3 mV; in the test listed under Homo sapiens [2], 1.3 mV.

As for `O=C(Nc1ccc2[nH]c(-c3ccc(C(F)(F)F)cc3)cc2c1)OC1CC1`, the V1/2 in test [1] came to 6.2 mV; in the test filed under Homo sapiens [2], 4.7 mV.

Regarding `Nc1c(NC(=O)OC2CC2)ccc(NCc2ccc(C(F)(F)F)cc2)c1F`, the concentration giving a half-maximal response (EC50) came out at 3.03 µM in test [3], 18 nM in test [6], 910 nM in test [4] and 3780 nM in test [5]. Besides, the Ratio EC50 in the test filed under Homo sapiens [7] and in the test listed under Homo sapiens [8] was 50 in each case. Also, the V1/2 in test [1] is -44.9 mV; in the test listed under Homo sapiens [2] it was -9.3 mV.

For the compound `[2H]c1cc(NC(=O)OCC)c(N)c(F)c1NCc1ccc(C(F)(F)F)cc1`, the EC50 in test [3] came to 0.98 µM.

In the case of `CC(C)(C)CC(=O)Nc1ccc2[nH]c(-c3ccc(C(F)(F)F)cc3)cc2c1`, the V1/2 in test [1] is -4.1 mV; in the test filed under Homo sapiens [2], 3.2 mV.

Consider `CCOC(=O)Nc1cc(F)c(NCc2ccc(C(F)(F)F)cc2)c(F)c1N`, for which the concentration giving a half-maximal response (EC50) in test [4] was found to be 87 nM; in test [5], 1060 nM.

With `COc1ccc2c(c1)[C@@H](NC(C)=O)[C@H](C)[C@@H](c1ccccc1)N2C(C)=O`, the V1/2 amounted to 2.5 mV in test [1] and 0.26 mV in the test listed under Homo sapiens [2].

Regarding `COc1ccc2c(c1)[C@@H](NC(C)=O)[C@H](C)[C@@H](c1ccccc1)N2C(=O)Nc1ccc(C(F)(F)F)cc1`, the V1/2 in test [1] is 10 mV; in the test filed under Homo sapiens [2], -2.7 mV.

Turning to `CCOC(=O)Nc1ccc(NCc2ccc(C(F)(F)F)cc2)c(F)c1N`, the V1/2 is -48.1 mV in test [1], -45.2 mV in test [1] (tested as the 2H-labelled form), 1.9 mV in the test filed under Homo sapiens [2] and -4.4 mV in the test filed under Homo sapiens [2] (tested as the 2H-labelled form).
